Measurements published in patent US20190343817A1, “METHOD OF TREATING PAIN” (VERTEX PHARMACEUTICALS INCORPORATED, priority 2018, published 2019).

Experiments:
[1] = tested on: patients with chronic pain caused by small fiber neuropathy; experiment: Efficacy of Compound 1 for pain caused by small fiber neuropathy (randomized, double-blind, placebo-controlled, 6-week study); type: in vivo, human
Procedure: A randomized, double-blind, placebo-controlled, 6-week study that evaluated treatment with Compound 1 (Treatment Arm) or placebo (Placebo Arm) in patients with chronic pain caused by small fiber neuropathy was conducted.
Males and females between the ages of 18 and 80 years, inclusive, with small fiber neuropathy.
Compound 1 was administered orally in 250 mg capsules, prepared as described in Example 2.
The study included a 7-day run-in period, followed a 6-week treatment period. The subjects were randomized to a Placebo Arm (43 subjects) and a Treatment Arm (46 subjects) between the run-in period and the treatment period.
During the run-in period, subjects reported their average pain and sleep interference to establish a baseline NRS pain score and DSIS score.
During the treatment period, Compound 1 was administered to the subjects in the Treatment Arm every 24 hours (q24 h) in a dose of 1250 mg. Subjects in the Placebo Arm received placebo capsules.
Pain intensity was evaluated using an 11-point NRS. The 11-point scale ranged from 0 (no pain) to 10 (worst imaginable pain). From Day −7 through Week 6, subjects reported their average daily pain during the last 24 hours on the NRS via electronic diary.
Subjects reported pain interference with sleep using an 11-point scale ranging from 0 (none) to 10 (severe). The DSIS score was reported each morning in an electronic diary.
Subjects' impressions of their overall health status were reported on a 7-point scale from 1 (very much improved) to 7 (very much worse) at study visits.
NRS pain scores were averaged over weekly periods to reduce the impact on the analyses of individual high or low pain scores. The mean change from baseline in the weekly average of daily pain intensity on the 11-point NRS over the course of the treatment period for subjects in the Placebo and Treatment Arms is depicted graphically in FIG. 3. The mean change from baseline for those treated with Compound 1 compared to placebo was −1.09 (95% CI: −1.88 to −0.29) at Week 6.
The number and percentage of subjects with ≥30% and ≥50% reduction in the weekly average of daily pain intensity on the 11-point NRS at Week 6 is reported in Table 9. The total number of subjects for determining the percentage was based on subjects who had data at Week 6.
The total number of subjects for determining the percentage was based on subjects who had data at Week 6.

[2] = tested on: subjects with pain following bunionectomy; experiment: Safety evaluations in the bunionectomy study (adverse events)
Excerpt: Safety evaluations included adverse events, clinical laboratory assessments, clinical evaluation of vital signs, electrocardiograms, and physical examinations.

[3] = tested on: subjects with pain following bunionectomy; experiment: Efficacy of Compound 1 in subjects with pain following bunionectomy (randomized, double-blind, placebo-controlled, 3-arm study); type: in vivo, human
Procedure: A randomized, double-blind, placebo-controlled, 3-arm, parallel-design study to evaluate the effect of Compound 1 on acute surgical pain was conducted. Bunionectomy is a well-established, multi-dose, surgical, acute pain model. A randomized, double-blind study design was selected to avoid observer bias and reduce symptoms or outcomes arising from the subjects' knowledge of treatment. A parallel design was considered most appropriate given the acute nature of bunionectomy surgery.
Male and female patients between the ages of 18 and 65 years (inclusive) with pain that is ≥4 on an 11-point Numeric Pain Rating Scale (NPRS) and is moderate or severe on the Verbal Categorical Rating Scale (VRS) after bunionectomy.
Investigational Drug: Compound 1. The investigational drug was administered orally in 250 mg capsules, prepared as described in Example 2. The investigational drug was administered every 12 hours (q12 h). The first dose was 1500 mg, and the remaining doses were 750 mg.
The reference drug was administered orally in 5 mg/325 mg capsules, supplied as over-encapsulated 5 mg/325 mg tablets. The reference drug was administered in a dose of 5 mg/325 mg every 6 hours (q6 h).
After a screening period, subjects received a primary unilateral first metatarsal bunionectomy repair on Day −1. A continuous popliteal sciatic block infusion (0.2% ropivacaine) was started after surgery, and remained in place until approximately 3 AM on Day 1. After removal of the popliteal sciatic block, each subject was randomized when the subject requested the first dose of study drug for pain relief and reported pain ≥4 on the NPRS and moderate or severe pain on the VRS.
A total of 243 subjects were randomized approximately 1:1:1 to the Investigational Arm (80 subjects), Reference Arm (81 subjects), and Placebo Arm (82 subjects). To maintain the blind, all subjects received the same number of capsules in a double-dummy design.
In the Investigational Arm, Compound 1 was administered every 12 hours (q12 h) in a first dose of 1500 mg, followed by three 750 mg doses. The final dose of Compound 1 was given 36 hours after the first dose.
Compound 1 placebo capsules were administered every 12 hours (q12 h).
NPRS scores are frequently used in bunionectomy studies and are recognized by the FDA as a valid pain intensity measure. On the 11-point NPRS, a score of 0 denoted no pain, and a score of 10 denoted the worst pain intensity imaginable. Subjects reported their pain on the 11-point NPRS immediately before their first dose of the study drug (baseline NPRS score) and 0.5, 1, 1.5, 2, 3, 4, 5, 6, 8, 12, 16, 20, 24, 28, 32, 36, 40, 44, and 48 hours (±5 minutes) after the first dose of study drug. Pain intensity also was recorded on the NPRS immediately before each administration of rescue medication. Pain intensity scores that were collected within 4 hours after a dose of rescue medication were taken as missing, and the missing values were imputed as the intensity recorded immediately before the administration of rescue medication.
The primary efficacy analysis was based on an analysis of covariance (ANCOVA) model. The Least Squares (LS) mean of the time-weighted sum of the NPRS pain intensity difference, relative to baseline, from 0 to 24 hours after the first dose (“SPID24”) for each study arm is reported in Table 3. SPID24 is a standard measure of acute pain. Higher SPID24 scores represent improvements in pain relief. “Treatment difference” refers to the difference in SPID24 between the Investigational and Reference Arms, respectively, and the Placebo Arm.
The LS mean of the time-weighted sum of the NPRS pain intensity difference, relative to baseline, from 2 to 24 hours after the first dose (“SPID22”) for each study arm is reported in Table 4. The analysis was based on an analysis of covariance (ANCOVA) model. “Treatment difference” refers to the difference in SPID22 between the Investigational and Reference Arms, respectively, and the Placebo Arm.

[4] = Week 6, 1250 mg q24 h, n/Total of subjects with data at Week 6 given
[5] = oral, Compound 1 1500 mg first dose then 750 mg q12 h, HB/APAP 5 mg/325 mg q6 h, ANCOVA
[6] = relative to baseline, 24 hours after first dose, Investigational Arm 80 subjects, Reference Arm 81 subjects

With Cc1cc(F)ccc1Oc1cc(C(F)(F)F)ccc1C(=O)Nc1ccn(COP(=O)(O)O)c(=O)c1 [Compound 1, (4-(2-(4-fluoro-2-methylphenoxy)-4-(trifluoromethyl)benzamido)-2-oxopyridin-1(2H)-yl)methyl dihydrogen phosphate] the “Mean change from baseline NRS at week 6 (SE), weekly average of daily pain intensity on 11-point NRS” value ([1]; 1250 mg q24 h oral, 6 weeks, baseline 6.43, within-group) was −2.02 (0.27), the “Subjects categorized as improved on the PGIC assessment” value [1, 4] was 39.5% (17/43) and the “Subjects with ≥30% reduction in weekly average of daily pain intensity on 11-point NRS” value [1, 4] was 45.0% (18/40). For the same compound, the “Subjects with ≥50% reduction in weekly average of daily pain intensity on 11-point NRS” value [1, 4] was 32.5% (13/40), the “Mean change from baseline in weekly average of daily pain intensity (NRS), Compound 1 compared to placebo” value ([1]; Week 6, 1250 mg q24 h oral) was −1.09 (95% CI: −1.88 to −0.29) and the “Mean change from baseline (SE) in weekly average of Daily Sleep Interference Scale (DSIS) score” value ([1]; Week 6, 1250 mg q24 h oral, baseline 5.94) was −1.78 (0.28). The “Treatment difference versus placebo in NRS pain intensity” value ([1]; as early as Week 1, 1250 mg q24 h oral) was “greater than 1 point”, the Tolerability ([2]; 1500 mg then 750 mg q12 h, oral) was “generally well tolerated” and the Gastrointestinal adverse events ([2]; percentage of arm) was 13%. The “Treatment difference in SPID24 versus Placebo Arm” value ([3]; 0 to 24 hours after first dose, same dosing as SPID24) was 29.50, the “Treatment difference in SPID48 versus Placebo Arm” value ([3]; 0 to 48 hours after first dose) was 62.79 and the “Treatment difference in SPID22 versus Placebo Arm” value ([3]; 2 to 24 hours after first dose) was 28.53. For the same compound, the “Relief of acute pain compared to placebo (SPID24)” value ([3]; Investigational Arm, 1500 mg then 750 mg q12 h) was “statistically significant relief of acute pain compared to placebo”, the “Subjects who discontinued due to lack of efficacy” value ([3]; bunionectomy study, of subjects assigned to the arm) was 7.5% and the “SPID22 (SE): LS mean of time-weighted sum of NPRS pain intensity difference, relative to baseline, 2 to 24 hours after first dose” value [3, 5] was 34.95 (4.93). The “SPID48 (SE): LS mean of time-weighted sum of NPRS pain intensity difference, relative to baseline, 0 to 48 hours after first dose” value [3, 5] was 112.22 (10.57), the “SPID24 (SE): LS mean of time-weighted sum of NPRS pain intensity difference, relative to baseline, 0 to 24 hours after first dose” value ([3]; oral, Compound 1 1500 mg first dose then 750 mg q12 h, HB/APAP 5 mg/325 mg q6 h, ANCOVA, higher = better pain relief) was 36.14 (5.15) and the “Subjects achieving ≥30% NPRS reduction at 24 hours” value [3, 6] was 46 (57.5) n (%). The “Subjects achieving ≥50% NPRS reduction at 24 hours” value [3, 6] was 41 (51.3) n (%) and the “Subjects achieving ≥70% NPRS reduction at 24 hours” value [3, 6] was 22 (27.5) n (%).
